Source: ChEMBL document CHEMBL3745668, “Synthesis and biological evaluation of novel 5-hydroxylaminoisoxazole derivatives as lipoxygenase inhibitors and metabolism enhancing agents” (Bioorg Med Chem, 2016)
Activity calls are given as the source filed them. The calls are words filed in the database; no cut-off is given here.

Columns and labels:
[1] = Antioxidant activity assessed as DPPH radical scavenging activity after 30 mins by spectrophotometry analysis; assay type: physicochemical
[2] = Cytotoxicity against albino rat primary cerebellar granule neurons assessed as reduction in cell viability at 30 uM after 24 hrs by MTT assay; settings: primary cerebellar granule neuron
[3] = species: Rattus norvegicus; assay: Increase in oxygen consumption rate of mitochondrial coupled state respiration in albino rat liver mitochondria using succinate as substrate at 10 uM by XF96 extracellular flux analysis in presence of rotenone; assay type: functional
[4] = test system: Brain; assay: Antioxidant activity in albino rat brain homogenate assessed as inhibition of Fe(II)-induced lipid peroxidation after 60 mins by TBARS assay; assay type: functional, tissue-based
[5] = test system: Brain; assay: Antioxidant activity in albino rat brain homogenate assessed as inhibition of Fe(III)-induced lipid peroxidation after 60 mins by TBARS assay; assay type: functional, tissue-based; settings: 1 h
[6] = species: Rattus norvegicus; assay: Effect on mitochondrial membrane potential in albino rat liver mitochondria using succinate as substrate by safranine A staining based assay in presence of rotenone or glutamate/malate; assay type: functional
[7] = biological target: T1, Seed linoleate 13S-lipoxygenase-1 (Glycine max, UniProt P08170); assay: Inhibition of soybean LOX1 assessed as reduction in linoleic acid oxidation measured every 10 s for 10 mins by spectrophotometry analysis
T1 sequence (P08170 whole entry): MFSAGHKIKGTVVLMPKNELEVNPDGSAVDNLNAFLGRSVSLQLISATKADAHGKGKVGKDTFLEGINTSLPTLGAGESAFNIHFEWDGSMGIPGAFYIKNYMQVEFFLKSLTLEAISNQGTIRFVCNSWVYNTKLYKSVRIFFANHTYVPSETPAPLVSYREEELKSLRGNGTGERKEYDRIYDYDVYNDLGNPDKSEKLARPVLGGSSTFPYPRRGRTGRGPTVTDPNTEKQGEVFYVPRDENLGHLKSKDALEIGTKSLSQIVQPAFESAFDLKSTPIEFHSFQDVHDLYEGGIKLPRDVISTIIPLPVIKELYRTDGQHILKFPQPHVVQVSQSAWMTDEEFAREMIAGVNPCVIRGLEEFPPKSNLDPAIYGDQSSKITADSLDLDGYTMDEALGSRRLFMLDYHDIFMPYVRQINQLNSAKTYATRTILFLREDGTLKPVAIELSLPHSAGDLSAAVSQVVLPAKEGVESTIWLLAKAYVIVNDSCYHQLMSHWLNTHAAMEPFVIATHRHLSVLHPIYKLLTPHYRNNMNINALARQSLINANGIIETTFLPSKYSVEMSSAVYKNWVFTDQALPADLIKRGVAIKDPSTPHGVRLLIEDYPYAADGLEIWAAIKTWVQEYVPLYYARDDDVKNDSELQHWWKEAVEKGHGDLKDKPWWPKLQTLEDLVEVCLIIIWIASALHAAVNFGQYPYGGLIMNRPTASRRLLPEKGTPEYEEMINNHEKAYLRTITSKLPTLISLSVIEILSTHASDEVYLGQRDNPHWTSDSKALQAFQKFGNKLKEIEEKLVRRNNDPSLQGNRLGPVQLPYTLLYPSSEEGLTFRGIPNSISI

[8] = species: Rattus norvegicus; assay: Increase in oxygen consumption rate of mitochondrial resting respiration in albino rat liver mitochondria at 10 uM by XF96 extracellular flux analysis in presence of oligomycin; assay type: functional
[9] = species: Rattus norvegicus; assay: Increase in FCCP-stimulated oxygen consumption rate of mitochondrial coupled state respiration in albino rat liver mitochondria at 10 uM by XF96 extracellular flux analysis; assay type: functional
[10] = species: Rattus norvegicus; assay: Effect on calcium-induced depolarization of albino rat liver mitochondria using succinate as substrate by safranine A staining based assay in presence of rotenone or glutamate/malate; assay type: functional
[11] = test system: SH-SY5Y; assay: Cytotoxicity against human SH-SY5Y cells assessed as reduction in cell viability at 30 uM after 24 hrs by MTT assay relative to control; assay type: cell-based
[12] = Cytotoxicity against albino rat primary cerebellar granule neurons assessed as reduction in cell viability at 30 uM after 24 hrs by MTT assay relative to control; settings: primary cerebellar granule neuron
[13] = Antioxidant activity assessed as DPPH radical scavenging activity after 20 mins; assay type: physicochemical
[14] = test system: Brain; assay: Antioxidant activity in Wstar rat brain homogenate assessed as inhibition of Fe(II)-induced TBARS formation incubated for 15 mins by spectrophotometry analysis; assay type: functional, tissue-based; settings: 0.25 h
[15] = biological target: T2, Seed linoleate 13S-lipoxygenase-1 (Glycine max) (UniProt P08170); assay: Inhibition of soybean LOX1 assessed as reduction in linoleic acid oxidation at 50 uM measured every 10 s for 10 mins by spectrophotometry analysis
T2 sequence (whole entry): T1 sequence (P08170 whole entry)

[16] = Rattus norvegicus, Brain, 1 h, read-out: IC50

EC50 [1] | IC50 [4, 16] | IC50 [5] | IC50 [7] | IC50 ([7]; read-out: IC50) | IC50 [13] | IC50 [4] | inhibition [15] | SMILES | Activity [2] | Activity [3] | Activity [6] | Activity [8] | Activity [9] | Activity [10] | Activity [11] | Activity [12] | IC50 [14]
> 100 µM | 3.41 µM | 5.45 µM | Not Active |  |  |  |  | O=C(OCc1ccc(C23CC4CC(CC(C4)C2)C3)cc1)c1cc(N(O)C2CCCO2)on1 (stereo not given) | Non-toxic | Active | inactive | inactive | Active | inactive |  |  | 
> 100 µM | 2.74 µM | 1.58 µM |  | 277 µM |  |  |  | CC(C)OC(=O)C12CC3CC(CC(OC(=O)c4cc(N(O)C5CCCO5)on4)(C3)C1)C2 (stereo not given) | Non-toxic | Active | inactive | inactive | Active | inactive |  |  | 
38 µM | 5.16 µM | 1.48 µM |  | 1 µM |  |  | Active | CC12CC3CC(C)(C1)CC(OC(=O)c1cc(N(O)C4CCCO4)on1)(C3)C2 (stereo not given) | Non-toxic | Active | inactive | inactive | Active | inactive |  |  | 

The next lines start with the molecule.

SMILES | EC50 [1] | IC50 [4, 16] | IC50 [5] | IC50 [7] | IC50 ([7]; read-out: IC50) | IC50 [13] | IC50 [4] | inhibition [15] | Activity [2] | Activity [3] | Activity [6] | Activity [8] | Activity [9] | Activity [10] | Activity [11] | Activity [12] | IC50 [14]
O=C(OCC12CC3CC(CC(C3)C1)C2)c1cc(N(O)C2CCCO2)on1 (stereo not given) | 70 µM | 6.58 µM | 22 µM |  | 16 µM |  |  |  | Non-toxic | Active | inactive | inactive | Active | inactive | 22% |  | 
O=C(OCCC12CC3CC(CC(C3)C1)C2)c1cc(N(O)C2CCCO2)on1 (stereo not given) | 21 µM | 3.15 µM | 5.25 µM |  | 0.4 µM |  |  |  |  | Active | inactive | inactive | Active | inactive |  | 77% | 
O=C(OC1C2CC3CC(C2)CC1C3)c1cc(N(O)C2CCCO2)on1 (stereo not given) | 71 µM | 10.5 µM | 1.21 µM |  | 4 µM |  |  |  |  |  | inactive |  |  | inactive |  |  | 
C[C@H](c1cc2ccccc2s1)N(O)C(N)=O | 14 µM |  |  |  |  | 43 µM |  |  |  |  |  |  |  |  |  |  | > 50 µM
O=C(OCCOC12CC3CC(CC(C3)C1)C2)c1cc(N(O)C2CCCO2)on1 (stereo not given) | > 100 µM |  | 35 µM | Not Active |  |  | Not Active |  | Non-toxic | Active | inactive | inactive | Active | inactive |  |  | 
O=C(OC12CC3CC(CC(C3)C1)C2)c1cc(N(O)C2CCCO2)on1 (stereo not given) | 16 µM | 0.33 µM | 1.37 µM |  | 25 µM |  |  |  |  | Active | inactive | inactive | Active | inactive |  |  | 
